Test results: patent US20060276372A1, “Carotenoids, carotenoid analogs, or carotenoid derivatives for the treatment of proliferative disorders” (priority 2005, published 2006)
Where two headings read alike, the source gives them in different places.

Legend:
[1] = test system: superoxide anion; experiment: Direct superoxide anion scavenging by EPR spectroscopy (DEPMPO spin trap), PMA-stimulated isolated human PMNs; type: cell-based
Experimental: Leukocyte Isolation and Preparation. Human polymorphonuclear leukocytes (PMNs) were isolated from freshly sampled venous blood of a single volunteer by Percoll density gradient centrifugation as described previously. Briefly, each 10 mL of whole blood was mixed with 0.8 mL of 0.1 M EDTA and 25 mL of saline. The diluted blood was then layered over 9 mL of Percoll at a specific density of 1.080 g/mL. After centrifugation at 400×g for 20 min at 20° C., the plasma, mononuclear cell, and Percoll layers were removed. Erythrocytes were subsequently lysed by addition of 18 mL of ice-cold water for 30 s, followed by 2 mL of 10×PIPES buffer (25 mM PIPES, 110 mM NaCl, and 5 mM KCl, titrated to pH 7.4 with NaOH). Cells were then pelleted at 4° C., the supernatant was decanted, and the procedure was repeated. After the second hypotonic cell lysis, cells were washed twice with PAG buffer [PIPES buffer containing 0.003% human serum albumin (HSA) and 0.1% glucose]. Afterward, PMNs were counted by light microscopy on a hemocytometer. The isolation yielded PMNs with a purity of >95%. The final pellet was then suspended in PAG-CM buffer (PAG buffer with 1 mM CaCl2 and 1 mM MgCl2).
EPR Measurements. All EPR measurements were performed using a Bruker ER 300 EPR spectrometer operating at X-band with a TM110 cavity as previously described. The microwave frequency was measured with a Model 575 microwave counter (EIP Microwave, Inc., San Jose, Calif.). To measure superoxide anion (O2) generation from phorbol-ester (PMA)-stimulated PMNs, EPR spin-trapping studies were performed using the spin trap DEPMPO (Oxis, Portland, Oreg.) at 10 mM. 1×10^6 PMNs were stimulated with PMA (1 ng/mL) and loaded into capillary tubes for EPR measurements. To determine the radical scavenging ability of 3 and 9 in aqueous and ethanolic formulations, PMNs were pre-incubated for 5 minutes with test compound, followed by PMA stimulation.
Instrument settings used in the spin-trapping experiments were as follows: modulation amplitude, 0.32 G; time constant, 0.16 s; scan time, 60 s; modulation frequency, 100 kHz; microwave power, 20 milliwatts; and microwave frequency, 9.76 GHz. The samples were placed in a quartz EPR flat cell, and spectra were recorded. The component signals in the spectra were identified and quantified as reported previously.

[2] = Determination of aqueous solubility/dispersibility; type: physicochemical
Experimental: (§1) Determination of aqueous solubility/dispersibility. 30.13 mg of 3 was added to 1 mL of USP-purified water. The sample was rotated for 2 hours, then centrifuged for 5 minutes. After centrifuging, solid was visible in the bottom of the tube. A 125-μL aliquot of the solution was then diluted to 25 mL. The sample was analyzed by UV/Vis spectroscopy at 436 nm, and the absorbance was compared to a standard curve compiled from 4 standards of known concentration. The concentration of the original supernatant was calculated to be 2.85 mg/mL and the absorptivity was 36.94 AU*mL/cm*mg. Slight error may have been introduced by the small size of the original aliquot.
as §1, with “Next, 30.80” for “Determination of aqueous solubility/dispersibility. 30.13”, “9” for “3”, “UViis” for “UV/Vis”, “411” for “436”, “The concentration of the original supernatant was calculated to be 2.85 mg/mL and the absorptivity was 36.94 AU*mL/cm*mg.” left out
Determination of aqueous solubility/dipsersibility of pAST. 23.70 mg of tetrasodium diphosphate astaxanthin was added to 1 ml of USP purified water. The mixture was stirred for 2 hours, and centrifuged for 5 minutes. The solution was diluted in water and analyzed by UV/vis spectroscopy at 480 nm and absorbance was compared to a standard curve compiled from 4 standards of known concentration.

[3] = test system: CX43 protein; experiment: CX43 protein expression in 10T1/2 cells by Western blotting (Example 1); type: cell-based, Mouse; conditions: 4 days
Experimental: Cell lines and culture conditions. Mouse embryonic fibroblast 10T1/2 cells were cultured in Eagle's basal medium with Earle's salts supplemented with 4% fetal calf serum (Atlanta Biologicals, Norcross, Ga.), 25 μg/ml gentamicin sulfate (Sigma, St. Louis, Mo.), and passaged by trypsin/EDTA (Gibco Invitrogen, Carlsbad, Calif.) and maintained at 37° C. in a 5% CO2 atmosphere. The cells were allowed to grow until a monolayer was formed. The confluent cells were treated 7 days after seeding, unless otherwise indicated. dAST was prepared in a formulation of 20% EtOH and sterile water (0.2% final EtOH ) to minimize supramolecular aggregation, and the final concentration of EtOH in culture medium was 0.2%. CTX was dissolved in THF and added to media. TTNPB was dissolved in acetone (Sigma, St. Louis, Mo.) and cultures received a final acetone concentration of 0.1%.
Analysis of CX43 protein expression. Expression of CX43 protein in 10T1/2 cells was assessed by Western blotting. 10T1/2 cell monolayers were treated with the indicated carotenoid derivatives or with retinoids (as a positive control for the modulation of CX43 expression) 7 days after seeding in 100 mm dishes (Fisher Scientific, Pittsburgh, Pa.). Fours days after the drug was added to the cells, the cells were harvested, total cellular protein was isolated and the total protein concentration thereof was determined using a commercially available Protein Assay Reagent kit (Pierce Chemical Co., Rockford, Ill.). 40 μg of total cellular protein was resolved on an SDS-PAGE gel, transferred to a nitrocellulose membrane, and analyzed by Western blotting using the NuPage Western blotting kit (Invitrogen, Carlsbad, Calif.). CX43 was detected using a rabbit polyclonal antibody (Zymed, San Francisco, Calif.) raised against a synthetic polypeptide corresponding to the C-terminal domain common to mouse, human and rat CX43. Equal protein loafing was verified by immunoblotting for GAPDH, the expression of which is unaffected by treatment with retinoids or carotenoids, using a rabbit polyclonal GAPDH antibody was also used (Zymed, San Francisco, Calif.). CX43 and GAPDH immunoreactive bands were visualized by chemiluminescence using an anti-rabbit HRP-conjugated secondary antibody (Pierce Chemical Co., Rockford, Ill.). Images were obtained by exposure to X-ray film as previously described and scanned for digital analysis on the Fluoro-S Imager (Bio-Rad, Richmond, Calif.).

[4] = test system: CX43; experiment: CX43 plaques by indirect immunofluorescence in 10T1/2 cells; type: cell-based, Mouse; conditions: 4 days; for CX43 immunoreactive plaques / gap junction assembly: 10^−8 M
Experimental: Analysis of CX43 protein by indirect immunofluorescence. Expression and assembly of CX43 into plaques was assessed by immunofluorescence staining essentially as described in Rogers et al, 1990, which is incorporated herein by reference. Briefly, confluent cultures of 10T1/2 cells were grown on Permanox plastic 4-chamber slides (Nalge Nunc International, Naperville, Ill.) and treated for 4 days as described above. Cells were fixed with −20° C. methanol overnight, washed in buffer, blocked in 1% bovine serum albumin (Sigma, St. Louis, Mo.) in PBS, incubated with the rabbit anti-CX43 antibody, and visualized with Alexa568 conjugated anti-rabbit secondary antibody (Molecular Probes, Eugene, Oreg.). Images were acquired with a Zeiss Axioplan microscope and a Roper Scientific cooled CCD camera.

[5] = test system: 10T1/2 cells; experiment: Gap junctional communication, scrape-loading dye transfer assay; type: cell-based, Mouse; conditions: 7 days
Experimental: Gap junctional communication assay. Junctional permeability was assayed by the scrape-loading dye transfer assay essentially as described in El-Fouly et al., 1987, which is incorporated herein by reference. Briefly, confluent cultures of 10T1/2 cells grown in 60 mm dishes were treated with the indicated compounds for 7 days. The treated cells were washed with Ca^+2-free phosphate-buffered saline (PBS). 1.5 ml of Lucifer Yellow CH (Sigma, St. Louis, Mo.) 0.2% in PBS was then added, and linear cuts were made on the monolayer using a surgical scalpel. The cultures were incubated for 2 minutes at 37° C. then rinsed thoroughly with PBS. The cultures were then fixed with 2 ml of 5% formaldehyde in PBS. Images were digitally quantitated by intensity thresholding using the SigmaScan software program (Jandel Scientific, San Rafael, Calif.).

[6] = test system: 10T1/2 cells; type: cell-based, Mouse; conditions: for % Inhibition of MCA-induced transformation: 4 week period; for Foci/dish (mean Type II + Type III foci, 24 dishes): 4 week period after MCA
Experimental: Inhibition of MCA-induced neoplastic transformation in 10T1/2 cells. Cells were initiated with methylcholanthrene (MCA) […] (Sigma, St. Louis, Mo.) in acetone for 24 hours. Potential inhibitors of neoplastic transformation were added 7 days after removal of carcinogen as indicated and were renewed weekly by adding fresh medium supplemented with the appropriate drug for four weeks after removal of the carcinogen. The cultures were fixed and stained as described above. A total of 24 dishes of cells were used per treatment group. Type II and III foci were identified and then quantitated as described in Bertram et al., 1990, which is incorporated herein by reference.
Statistical analysis. Transformation data was analyzed by one-tailed, two-sample t-tests that incorporated unequal variances. The scrape-loading data was analyzed by paired t-tests.

[7] = 0.1 mM in 40% EtOH, sodium salt

3,3′-Diphosphoryloxy-β,ε-carotene sodium salt [Lutein Diphosphate Sodium Salt]
Mean (% inhibition) of superoxide anion signal ([1]; 0.1 mM in 40% EtOH, listed as disodium diphosphate derivative of natural source lutein, sodium salt): 18% | Mean (% inhibition) of superoxide anion signal [1, 7]: 18.0% | Mean (% inhibition) of superoxide anion signal ([1]; 0.1 mM in water, listed as disodium diphosphate derivative of natural source lutein, sodium salt): 0% | Mean (% inhibition) of superoxide anion signal ([1]; 1.0 mM in water): 9.3% | Mean (% inhibition) of superoxide anion signal ([1]; 3.0 mM in water): 72.3% | Mean (% inhibition) of superoxide anion signal ([1]; 5.0 mM in water, listed as disodium diphosphate derivative of natural source lutein, sodium salt): more than 90% | Mean (% inhibition) of superoxide anion signal ([1]; 5.0 mM in water, sodium salt): 91.0%

CC1=C(/C=C/C(C)=C/C=C/C(C)=C/C=C/C=C(C)/C=C/C=C(C)/C=C/C2=C(C)C(=O)[C@@H](O)CC2(C)C)C(C)(C)C[C@H](O)C1=O [AST, astaxanthin, reference compound]
water dispersibility [2]: insoluble in water | CX43 protein induction versus solvent-treated controls ([3]; 10^−5 M): no change | CX43 protein induction versus solvent-treated controls ([3]; 10^−6 M): No change | CX43 protein induction versus solvent-treated controls ([3]; 10^−7 M): No change | CX43 immunoreactive plaques at regions of cell/cell apposition ([4]; 10^−6 M): few immunoreactive plaques | CX43 immunoreactive plaques / gap junction assembly [4]: comparable to untreated cultures | GJIC dye transfer ([5]; 10^−6 M): below that observed in untreated control cultures | GJIC dye transfer ([5]; 10^−7 M): roughly equivalent to that achieved in cultures treated with pAST | neoplastic transformation ([6]; 10^−5 M for 4 weeks): strongly inhibited | % Inhibition of MCA-induced transformation ([6]; 10^−6 M): 41% | Foci/dish (mean Type II + Type III foci, 24 dishes) ([6]; 10^−6 M): 0.96 foci/dish | % Inhibition of MCA-induced transformation ([6]; 10^−7 M): 39% | Foci/dish (mean Type II + Type III foci, 24 dishes) ([6]; 10^−7 M): 1.00 foci/dish | % Inhibition of MCA-induced transformation ([6]; 10^−8 M): 41% | Foci/dish (mean Type II + Type III foci, 24 dishes) ([6]; 10^−8 M): 0.96 foci/dish | foci/dish ([6]; all concentrations tested): 0.98 foci/dish

CC1=C(/C=C/C(C)=C/C=C/C(C)=C/C=C/C=C(C)/C=C/C=C(C)/C=C/C2=C(C)C(=O)CCC2(C)C)C(C)(C)CCC1=O [CTX, Canthaxanthin]
CX43 protein induction versus solvent-treated controls ([3]; 10^−5 M): ≈ 7 fold | CX43 immunoreactive plaques ([4]; 10^−5 M): roughly equivalent to that achieved in cells treated with pAST at 10^−6 M | increase of dye transfer ([5]; 10^−5 M): 4 fold

C/C(=C\c1ccc(C(=O)O)cc1)c1ccc2c(c1)C(C)(C)CCC2(C)C [TTNPB, tetrahydrotetramethylnaphalenylpropenyl benzoic acid]
CX43 protein induction versus solvent-treated controls ([3]; 10^−8 M): about 13 fold | CX43 immunoreactive plaques / gap junction assembly [4]: extensive CX43 immunoreactive plaques | increase of dye transfer ([5]; 10^−8 M): 6 fold

β,ε-carotenyl 3,3′-disuccinate sodium salt [Lutein Disuccinate Sodium Salt]
aqueous solubility/dispersibility [2]: 2.85 mg/mL | Mean (% inhibition) of superoxide anion signal ([1]; 0.1 mM in 40% EtOH, listed as disodium disuccinate derivative of natural source lutein, sodium salt): did not significantly increase scavenging over that provided by the EtOH vehicle alone | Mean (% inhibition) of superoxide anion signal [1, 7]: 5.0% | Mean (% inhibition) of superoxide anion signal ([1]; 0.1 mM in water): 0% | Mean (% inhibition) of superoxide anion signal ([1]; 1.0 mM in water): 13.0% | Mean (% inhibition) of superoxide anion signal ([1]; 3.0 mM in water): 61.7% | Mean (% inhibition) of superoxide anion signal ([1]; 5.0 mM in water, listed as disodium disuccinate derivative of natural source lutein, sodium salt): ~75% | Mean (% inhibition) of superoxide anion signal ([1]; 5.0 mM in water, listed as disuccinate lutein sodium salt, sodium salt): 75% | Mean (% inhibition) of superoxide anion signal ([1]; 5.0 mM in water, sodium salt): 74.7%
